# Measured values reported in PMC7179226, “Sulfonamide Inhibition Studies of the β-Class Carbonic Anhydrase CAS3 from the Filamentous Ascomycete Sordaria macrospora” (Molecules, 2020).
# Assays:
# CAS3 [1] = biological target: T1, CAS3 (Sordaria macrospora, UniProt F7VU04); assay: stopped-flow CO2 hydration inhibition assay; format: biochemical
# T1 construct: gene SMAC_03179; primers imply N-terminus (M)MPVTNEE and C-terminus KTVRVV-LE-His6
# CAS3 [2] = biological target: T2, CAS3 (Sordaria macrospora, UniProt F7VU04); assay: biochemical; conditions: read-out: KI* (nM) / CAS3 ^c / β
# T2 construct: gene SMAC_03179; primers imply N-terminus (M)MPVTNEE and C-terminus KTVRVV-LE-His6
# T2 sequence (F7VU04 1-174): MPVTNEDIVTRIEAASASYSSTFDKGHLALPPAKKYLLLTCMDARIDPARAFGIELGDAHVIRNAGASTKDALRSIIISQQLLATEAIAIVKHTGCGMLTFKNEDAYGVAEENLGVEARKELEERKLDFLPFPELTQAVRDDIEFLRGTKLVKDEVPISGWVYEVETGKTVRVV
# Experimental: An Applied Photophysics stopped-flow instrument was used for assaying the CA catalyzed CO2 hydration activity. […] The initial rates of the CA-catalyzed CO2 hydration were followed for a period of 10–100 s for each assay. […] For each measurement, six traces of the initial 5%–10% of the reaction were used for determining the initial velocity. Then, 10-fold decreasing dilution of inhibitor solutions, ranging from 1 nM and 100 µM were employed for determining the inhibition constants. Uncatalyzed rates were determined in the same manner and subtracted from total observed rates. Stock solutions of inhibitor (0.1 mM) were prepared in distilled deionized water, and dilutions up to 1 nM were done thereafter with the assay buffer. Inhibitor and enzyme solutions were preincubated together for 15 min at room temperature before to assay for allowing for the formation of E–I complexes. The inhibition constants were obtained by non-linear least-squares methods using the Cheng–Prusoff equation, and they represent the mean from at least three different determinations. The human isoforms hCA I, II were assayed in the same conditions as above except that the working pH was 7.4 HEPES buffer with phenol red as an indicator [21, 22].
# [3] = read-out: KI* (nM) / CAS3 ^c / β
SMILES,Ki (CAS3 [1]; [3]) [nM],Ki (CAS3 [2]) [nM],further results
"NS(=O)(=O)c1nnc(NS(=O)(=O)c2ccccc2)s1 [BZA, benzolamide]",54 ± 0.9,,
NS(=O)(=O)c1ccc(CCO)cc1 [compound 17],,507 ± 26,
Nc1ccc(S(=O)(=O)NCc2ccc(S(N)(=O)=O)cc2)cc1 [compound 23],,89 ± 3.4,
Cc1ccc(S(N)(=O)=O)cc1 [compound 4],,560 ± 21,
Nc1nccc(Nc2ccc(S(N)(=O)=O)cc2)n1 [compound 19],,91 ± 4.4,
Nc1ccc(S(N)(=O)=O)cc1Br [compound 9],,712 ± 28,
Cc1onc(-c2ccccc2)c1-c1ccc(S(N)(=O)=O)cc1 [VLX],831 ± 38,,
"CCN[C@H]1CN(CCCOC)S(=O)(=O)c2sc(S(N)(=O)=O)cc21 [BRZ, brinzolamide]",61 ± 1.4,,
Nc1cc(Cl)c(S(N)(=O)=O)cc1S(N)(=O)=O [compound 12],,90 ± 5.7,
NCc1ccc(S(N)(=O)=O)cc1 [compound 5],,726 ± 30,
NS(=O)(=O)c1cc(Cl)cc(Cl)c1O [compound 10],,350 ± 13,
NS(=O)(=O)Cc1noc2ccccc12 [ZNS],710 ± 40,,
CC1(C)O[C@@H]2[C@@H](CO[C@@]3(COS(N)(=O)=O)OC(C)(C)O[C@@H]23)O1 [TPM],363 ± 23,,
Nc1ccc(S(=O)(=O)Nc2ccc(S(N)(=O)=O)cc2)cc1 [compound 22],,85 ± 2.6,
"NS(=O)(=O)c1ccc(N2CCCCS2(=O)=O)cc1 [SLT, sulthiame]",4840 ± 257,,
Nc1ccc(S(=O)(=O)NCCc2ccc(S(N)(=O)=O)cc2)cc1 [compound 24],,84 ± 1.5,
"CC(=O)N=c1sc(S(N)(=O)=O)nn1C [MZA, methazolamide]",91 ± 6.2,,
NCCc1ccc(S(N)(=O)=O)cc1 [compound 6],,441 ± 14,

SMILES,Ki (CAS3 [1]; [3]) [nM],Ki (CAS3 [2]) [nM],further results
NS(=O)(=O)c1cccc(S(N)(=O)=O)c1 [compound 3],,83 ± 6,
NS(=O)(=O)c1ccc(S(=O)(=O)Nc2cccc3c(Cl)c[nH]c23)cc1 [IND],94 ± 4.6,,
"Cn1nc(S(N)(=O)=O)sc1=N [compound 14, deacetylated precursor of methazolamide]",94 ± 4.1,,
Cc1ccc(-c2cc(C(F)(F)F)nn2-c2ccc(S(N)(=O)=O)cc2)cc1 [CLX],,,Ki (CAS3 [1]): 669 ± 29 nM
O=C1NS(=O)(=O)c2ccccc21 [SAC],,,Ki (CAS3 [1]): 191 ± 12 nM
Nc1ccc(S(N)(=O)=O)cc1F [compound 7],,585 ± 23,
"NS(=O)(=O)c1ccc(CO)cc1 [compound 16, 4-hydroxymethyl-benzenesulfonamide]",82 ± 3.7,,
Nc1ccc(S(=O)(=O)Nc2nnc(S(N)(=O)=O)s2)cc1 [compound 20],,85 ± 2.7,
NS(=O)(=O)c1ccc(CCNS(=O)(=O)c2ccc([N+](=O)[O-])cc2CO)cc1 [compound 21],,95 ± 3.9,
Nc1ccc(S(N)(=O)=O)cc1Cl [compound 8],,2080 ± 61,
NS(=O)(=O)c1cc2c(cc1Cl)NCNS2(=O)=O [HCT],,,Ki (CAS3 [1]): 545 ± 41 nM
"Nc1nnc(S(N)(=O)=O)s1 [compound 13, deacetylated precursor of acetazolamide]",88 ± 2.9,,
NS(=O)(=O)c1ccc(O)cc1 [compound 15],,605 ± 23,
Nc1cc(C(F)(F)F)c(S(N)(=O)=O)cc1S(N)(=O)=O [compound 11],,235 ± 16,
"NS(=O)(=O)c1cc(Cl)c(Cl)c(S(N)(=O)=O)c1 [DCP, dichlorophnamide]",73 ± 3,,
NS(=O)(=O)c1ccc(C(=O)O)cc1 [compound 18],,226 ± 13,
CCN1CCCC1CNC(=O)c1cc(S(N)(=O)=O)ccc1OC (centres unmarked) [SLP],493 ± 27,,
